Test results reported in US10662156B2, “Guanidine derivative and medical use thereof” (Toray Industries, Inc., priority 2016, dated 2020).
Structures can show the parent of a compound that is named as a salt.

Each compound was assayed against recombinant GST fusion MALT1 (human MALT1) (Homo sapiens (Human), UniProt Q9UDY8) (assay: Evaluation of inhibition of protease activity of MALT1 (cleavage of fluorescent peptide substrate Ac-LRSR-AMC)). Details: substrate Ac-LRSR-AMC 20 μmol/L, 30° C. for 80 minutes.
Type: biochemical
Protocol: The guanidine derivative (I) or the pharmacologically acceptable salt thereof was evaluated for its inhibition of the protease activity of MALT1 in an in vitro experimental system in accordance with the method described in the literature (Cancer Cell, 2012, Vol. 22, p. 825-837). Specifically, the evaluation was conducted by measuring the degree of reduction in fluorescence value by the compound relative to elevation in fluorescence value resulting from the cleavage of a fluorescently labeled artificial peptide substrate by recombinant MALT1.
A) Preparation of Recombinant GST Fusion MALT1:
Full-length cDNA of human MALT1 gene (GenBank accession No: AB026118.1) amplified by PCR was inserted in flame to a SalI site located downstream of GST gene in a pGEX6P3 vector (GE Healthcare Japan Corp.) to prepare a vector (hereinafter, referred to as a pGEX6P3-MALT1 vector). Subsequently, E. coli for protein expression (BL21-RIL-codon plus-DE3, Agilent Technologies, Inc.) was transformed with the pGEX6P3-MALT1 vector and then analyzed by ampicillin resistance screening and colony PCR to obtain an E. coli strain expressing recombinant GST fusion MALT1. Protein expression was induced with isopropyl-(3-thiogalactopyranoside. After the expression induction, E. coli precipitates were recovered by centrifugation from the E. coli culture solution, and the E. coli precipitates were homogenized and then centrifuged to obtain a supernatant. The supernatant was purified using GSTrap FF column (GE Healthcare Japan Corp.) to obtain recombinant GST fusion MALT1.
B) Evaluation of Inhibition of Protease Activity of MALT1:
To 89 μL of an enzyme solution ([…] GST fusion MALT1, 50 mmol/L MES, 150 mmol/L NaCl, 10% sucrose, 0.1% CHAPS, 10 mmol/L dithiothreitol, and 1 mol/L tri-ammonium citrate) per specimen, 1 μL of a test compound (DMSO-diluted solution) of each concentration was added to prepare a mixed solution. The mixed solution was incubated at room temperature for 30 minutes, followed by the measurement of the fluorescence value of the mixed solution (fluorescence value of the first measurement) (Ex: 380 nm, Em: 460 nm; Envision (Perkin Elmer Inc.)). Next, 10 μL of 200 μmol/L substrate (Ac-LRSR-AMC, SM Biochemicals LLC) was added (final concentration: 20 μmol/L) to the mixed solution, and the mixture was reacted by incubation at 30° C. for 80 minutes, followed by the measurement of the fluorescence value of the reaction solution (fluorescence value of the second measurement) (Ex: 380 nm, Em: 460 nm; Envision (Perkin Elmer Inc.)). A “well nonsupplemented with the test compound (only DMSO was added), nonsupplemented with the enzyme and supplemented with the substrate”, and a “well nonsupplemented with the test compound (only DMSO was added), supplemented with the enzyme and supplemented with the substrate” were established.
The fluorescence value of the first measurement was defined as “F1”, and the fluorescence value of the second measurement was defined as “F2”. F2−F1 of the “well nonsupplemented with the test compound (only DMSO was added), nonsupplemented with the enzyme and supplemented with the substrate” was defined as “Fback”, F2−F1 of the “well nonsupplemented with the test compound (only DMSO was added), supplemented with the enzyme and supplemented with the substrate” was defined as “Fpositive”, and F2−F1 of the “well supplemented with the test compound, supplemented with the enzyme and supplemented with the substrate” was defined as “Fsample”. The rate of inhibition (%) of the protease activity of MALT1 by the test compound was calculated according to the following expression. Rate of inhibition (%)=100×(1−(Fsample−Fback)/(Fpositive−Fback))

Sequence of recombinant GST fusion MALT1 (human MALT1) (Q9UDY8 whole entry, the tested form may be a part): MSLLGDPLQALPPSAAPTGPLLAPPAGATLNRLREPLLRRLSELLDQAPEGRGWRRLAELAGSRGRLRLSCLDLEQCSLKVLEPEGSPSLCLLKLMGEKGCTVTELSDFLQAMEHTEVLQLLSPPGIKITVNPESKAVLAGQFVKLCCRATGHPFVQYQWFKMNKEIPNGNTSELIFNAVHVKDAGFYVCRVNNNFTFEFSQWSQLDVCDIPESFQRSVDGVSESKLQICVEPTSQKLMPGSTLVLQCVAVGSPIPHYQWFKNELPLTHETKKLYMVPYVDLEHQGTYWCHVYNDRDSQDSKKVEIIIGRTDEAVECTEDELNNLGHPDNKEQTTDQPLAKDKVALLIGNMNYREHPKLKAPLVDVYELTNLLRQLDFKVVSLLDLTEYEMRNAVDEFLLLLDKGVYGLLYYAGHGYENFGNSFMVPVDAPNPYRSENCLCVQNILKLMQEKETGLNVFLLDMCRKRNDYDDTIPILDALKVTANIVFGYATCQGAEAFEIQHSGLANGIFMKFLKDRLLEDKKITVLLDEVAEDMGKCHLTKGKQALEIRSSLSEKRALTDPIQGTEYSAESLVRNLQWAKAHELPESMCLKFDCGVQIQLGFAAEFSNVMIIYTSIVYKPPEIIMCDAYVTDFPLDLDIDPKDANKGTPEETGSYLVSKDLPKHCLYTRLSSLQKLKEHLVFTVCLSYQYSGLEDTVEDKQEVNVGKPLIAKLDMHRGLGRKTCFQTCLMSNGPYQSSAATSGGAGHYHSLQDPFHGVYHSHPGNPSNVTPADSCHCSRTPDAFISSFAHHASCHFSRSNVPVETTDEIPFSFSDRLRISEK

| IC50 [nM] | Compound |
| --- | --- |
| 705 | N/C(=N\S(=O)(=O)c1ccccc1)NCc1cnc(-c2ccccc2)c(-c2ccc(Cl)cc2)c1 [Compound of Example 3, N-(amino(((5-(4-chlorophenyl)-6-phenylpyridin-3-yl)methyl)amino)methylene)benzenesulfonamide] |
| 1400 | N/C(=N\S(=O)(=O)c1ccccc1)NCc1cnc(-c2cccc(Cl)c2)c(-c2ccc(Cl)cc2)c1 [Compound of Example 4, N-(amino(((6-(3-chlorophenyl)-5-(4-chlorophenyl)pyridin-3-yl)methyl)amino)methylene)benzenesulfonamide] |
| 66 | Cc1ccc(-c2ncc(CN/C(N)=N/S(=O)(=O)c3ccccc3)cc2-c2ccc(Cl)cc2)cc1 [Compound of Example 5, N-(amino(((5-(4-chlorophenyl)-6-(4-methylphenyl)pyridin-3-yl)methyl)amino)methylene)benzenesulfonamide] |
| 505 | COc1ccc(-c2ncc(CN/C(N)=N/S(=O)(=O)c3ccccc3)cc2-c2ccc(Cl)cc2)cc1 [Compound of Example 6, N-(amino(((5-(4-chlorophenyl)-6-(4-methoxyphenyl)pyridin-3-yl)methyl)amino)methylene)benzenesulfonamide] |
| 192 | N#Cc1ccc(-c2ncc(CN/C(N)=N/S(=O)(=O)c3ccccc3)cc2-c2ccc(Cl)cc2)cc1 [Compound of Example 7, N-(amino(((5-(4-chlorophenyl)-6-(4-cyanophenyl)pyridin-3-yl)methyl)amino)methylene)benzenesulfonamide] |
| 1290 | N/C(=N\S(=O)(=O)c1ccccc1)NCc1cnc(-c2ccc(F)cc2)c(-c2ccc(Cl)cc2)c1 [Compound of Example 8, N-(amino(((5-(4-chlorophenyl)-6-(4-fluorophenyl)pyridin-3-yl)methyl)amino)methylene)benzenesulfonamide] |
| 1710 | N/C(=N\S(=O)(=O)c1ccccc1)NCc1cnc(-c2cccc(F)c2)c(-c2ccc(Cl)cc2)c1 [Compound of Example 9, N-(amino(((5-(4-chlorophenyl)-6-(3-fluorophenyl)pyridin-3-yl)methyl)amino)methylene)benzenesulfonamide] |
| 297 | N/C(=N\S(=O)(=O)c1ccccc1)NCc1cnc(-c2ccc(OC(F)(F)F)cc2)c(-c2ccc(Cl)cc2)c1 [Compound of Example 10, N-(amino(((5-(4-chlorophenyl)-6-(4-(trifluoromethoxy)phenyl)pyridin-3-yl)methyl)amino)methylene)benzenesulfonamide] |
| 348 | N/C(=N\S(=O)(=O)c1ccccc1)NCc1cnc(-c2ccc(C(F)(F)F)cc2)c(-c2ccc(Cl)cc2)c1 [Compound of Example 11, N-(amino(((5-(4-chlorophenyl)-6-(4-(trifluoromethyl)phenyl)pyridin-3-yl)methyl)amino)methylene)benzenesulfonamide] |
| 338 | Cc1ccc(-c2ncc(CN/C(N)=N/S(=O)(=O)c3ccccc3)cc2-c2ccc(Cl)cc2)cc1F [Compound of Example 12, N-(amino(((5-(4-chlorophenyl)-6-(3-fluoro-4-methylphenyl)pyridin-3-yl)methyl)amino)methylene)benzenesulfonamide] |
| 237 | Cc1ccc(-c2ncc(CN/C(N)=N/S(=O)(=O)c3ccccc3)cc2-c2ccc(Cl)cc2)c(F)c1 [Compound of Example 13, N-(amino(((5-(4-chlorophenyl)-6-(2-fluoro-4-methylphenyl)pyridin-3-yl)methyl)amino)methylene)benzenesulfonamide] |
| 692 | N/C(=N\S(=O)(=O)c1ccccc1)NCc1cnc(-c2ccc(Cl)cc2)c(-c2ccccc2)c1 [Compound of Example 14, N-(amino(((6-(4-chlorophenyl)-5-phenylpyridin-3-yl)methyl)amino)methylene)benzenesulfonamide] |
| 308 | N/C(=N\S(=O)(=O)c1ccccc1)NCc1cnc(-c2ccc(Cl)cc2)c(-c2cccc(Cl)c2)c1 [Compound of Example 15, N-(amino(((5-(3-chlorophenyl)-6-(4-chlorophenyl)pyridin-3-yl)methyl)amino)methylene)benzenesulfonamide] |
| 2410 | N/C(=N\S(=O)(=O)c1ccccc1)NCc1cnc(-c2ccc(Cl)cc2)c(-c2ccccc2Cl)c1 [Compound of Example 16, N-(amino(((5-(2-chlorophenyl)-6-(4-chlorophenyl)pyridin-3-yl)methyl)amino)methylene)benzenesulfonamide] |
| 606 | Cc1ccc(-c2cc(CN/C(N)=N/S(=O)(=O)c3ccccc3)cnc2-c2ccc(Cl)cc2)cc1 [Compound of Example 17, N-(amino(((6-(4-chlorophenyl)-5-(4-methylphenyl)pyridin-3-yl)methyl)amino)methylene)benzenesulfonamide] |
| 24 | COc1ccc(-c2cc(CN/C(N)=N/S(=O)(=O)c3ccccc3)cnc2-c2ccc(Cl)cc2)cc1 [Compound of Example 18, N-(Amino(((6-(4-chlorophenyl)-5-(4-methoxyphenyl)pyridin-3-yl)methyl)amino)methylene)benzenesulfonamide] |
| 1520 | N#Cc1ccc(-c2cc(CN/C(N)=N/S(=O)(=O)c3ccccc3)cnc2-c2ccc(Cl)cc2)cc1 [Compound of Example 19, N-(amino(((6-(4-chlorophenyl)-5-(4-cyanophenyl)pyridin-3-yl)methyl)amino)methylene)benzenesulfonamide] |
| 1110 | N/C(=N\S(=O)(=O)c1ccccc1)NCc1cnc(-c2ccc(Cl)cc2)c(-c2ccc(F)cc2)c1 [Compound of Example 20, N-(amino(((6-(4-chlorophenyl)-5-(4-fluorophenyl)pyridin-3-yl)methyl)amino)methylene)benzenesulfonamide] |
| 1040 | N/C(=N\S(=O)(=O)c1ccccc1)NCc1cnc(-c2ccc(Cl)cc2)c(-c2ccc(C(F)(F)F)cc2)c1 [Compound of Example 21, N-(Amino(((6-(4-chlorophenyl)-5-(4-(trifluoromethyl)phenyl)pyridin-3-yl)methyl)amino)methylene)benzenesulfonamide] |
| 745 | N/C(=N\S(=O)(=O)c1ccccc1)NCc1cnc(-c2ccc(Cl)cc2)c(-c2ccc(OC(F)(F)F)cc2)c1 [Compound of Example 22, N-(amino(((6-(4-chlorophenyl)-5-(4-(trifluoromethoxy)phenyl)pyridin-3-yl)methyl)amino)methylene)benzenesulfonamide] |
| 1720 | CC(C)Oc1ccc(-c2cc(CN/C(N)=N/S(=O)(=O)c3ccccc3)cnc2-c2ccc(Cl)cc2)cc1 [Compound of Example 23, N-(amino(((6-(4-chlorophenyl)-5-(4-isopropoxyphenyl)pyridin-3-yl)methyl)amino)methylene)benzenesulfonamide] |
| 140 | COc1ccc(-c2cc(CN/C(N)=N/S(=O)(=O)c3ccccc3)cnc2-c2ccc(C)cc2)cc1 [Compound of Example 24, N-(amino(((5-(4-methoxyphenyl)-6-(4-methylphenyl)pyridin-3-yl)methyl)amino)methylene)benzenesulfoamide] |
| 1840 | Cc1ccc(-c2ncc(CN/C(N)=N/S(=O)(=O)c3ccccc3)cc2-c2ccc(C(F)(F)F)cc2)cc1 [Compound of Example 25, N-(amino(((6-(4-methylphenyl)-5-(4-(trifluoromethyl)phenyl)pyridin-3-yl)methyl)amino)methylene)benzenesulfonamide hydrochloride] |
| 315 | N/C(=N\S(=O)(=O)c1ccccc1F)NCc1cnc(-c2ccc(Cl)cc2)c(-c2ccc(Cl)cc2)c1 [Compound of Example 26, N-(amino(((5,6-bis(4-chlorophenyl)pyridin-3-yl)methyl)amino)methylene)-2-fluorobenzenesulfonamide] |
